Data on 24 molecules can be found in patent US20250282794A1 (CURADEV PHARMA LTD, priority 2022, published 2025).

This experiment has as its target recombinant full length HPK-1 enzyme (Homo sapiens (Human), UniProt Q92918). Briefly: HPK-1 biochemical enzyme assay (ADP-Glo kinase inhibition). The note with it: recombinant full length HPK-1 6.8 nM, 10 μM ATP, 12.5 μM MBP, 30 mins at 25° C. Put shortly: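 ADP-Glo readout of ADP formed after a 30 min, 25° C. reaction of 6.8 nM full-length HPK-1 with swine myelin basic protein (12.5 μM) and ATP (10 μM) in Tris pH 7.4 buffer with MgCl2, DTT and BSA. Ten compound concentrations tested; percent inhibition set against vehicle (0%) and no-enzyme (100%) controls gave IC50.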

Chain of recombinant full length HPK-1 enzyme (Q92918 whole entry, species assumed): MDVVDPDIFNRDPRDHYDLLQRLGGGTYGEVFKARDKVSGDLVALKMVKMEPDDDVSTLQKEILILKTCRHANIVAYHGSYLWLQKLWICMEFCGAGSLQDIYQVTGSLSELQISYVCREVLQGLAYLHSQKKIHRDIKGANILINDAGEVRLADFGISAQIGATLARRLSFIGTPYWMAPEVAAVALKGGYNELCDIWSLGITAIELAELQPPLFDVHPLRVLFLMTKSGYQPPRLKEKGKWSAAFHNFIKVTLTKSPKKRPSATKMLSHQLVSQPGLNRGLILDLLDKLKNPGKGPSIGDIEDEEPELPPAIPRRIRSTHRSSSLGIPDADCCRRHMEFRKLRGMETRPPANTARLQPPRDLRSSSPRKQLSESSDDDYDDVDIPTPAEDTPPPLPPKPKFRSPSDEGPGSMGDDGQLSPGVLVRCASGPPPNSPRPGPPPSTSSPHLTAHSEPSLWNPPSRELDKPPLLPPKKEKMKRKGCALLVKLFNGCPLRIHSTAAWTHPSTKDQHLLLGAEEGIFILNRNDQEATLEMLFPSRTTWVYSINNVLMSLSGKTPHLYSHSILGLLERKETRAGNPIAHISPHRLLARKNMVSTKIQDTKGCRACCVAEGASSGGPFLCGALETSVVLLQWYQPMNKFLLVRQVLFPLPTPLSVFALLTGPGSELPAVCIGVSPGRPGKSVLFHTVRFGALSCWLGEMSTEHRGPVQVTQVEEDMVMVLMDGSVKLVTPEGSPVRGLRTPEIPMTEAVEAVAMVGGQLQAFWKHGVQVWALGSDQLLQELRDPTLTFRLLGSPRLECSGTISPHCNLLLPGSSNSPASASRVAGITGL

As for `Cc1c(Nc2cc[nH]c(=O)c2C(=O)Nc2ccc(N3CCN(C)CC3)c(N(C)C)c2)cnc2c1NCCO2` [Example 291, N-(3-(dimethylamino)-4-(4-methylpiperazin-1-yl)phenyl)-4-((8-methyl-2,3-dihydro-1H-pyrido[2,3-b][1,4]oxazin-7-yl)amino)-2-oxo-1,2-dihydropyridine-3-carboxamide], the IC50 fell in the range of 0.01 to 0.1 µM.

On to `Cc1c(Nc2cc[nH]c(=O)c2C(=O)Nc2ccc(N3CCN(C4CCN(C)CC4)CC3)cc2)cnc2c1NCCO2` [Example 292, 4-((8-methyl-2,3-dihydro-1H-pyrido[2,3-b][1,4]oxazin-7-yl)amino)-N-(4-(4-(1-methylpiperidin-4-yl)piperazin-1-yl)phenyl)-2-oxo-1,2-dihydropyridine-3-carboxamide], for which the IC50 was at most 0.01 µM. As to `Cc1c(Nc2cc[nH]c(=O)c2C(=O)Nc2ccc(N3CCN(C(=O)[C@@H]4C[C@@H]4F)CC3)cc2)cnc2c1NCCO2` [Example 293, N-(4-(4-((1S,2S)-2-fluorocyclopropane-1-carbonyl)piperazin-1-yl)phenyl)-4-((8-methyl-2,3-dihydro-1H-pyrido[2,3-b][1,4]oxazin-7-yl)amino)-2-oxo-1,2-dihydropyridine-3-carboxamide], the half-inhibitory concentration (IC50) is at most 0.01 µM. On to `Cc1c(Nc2cc[nH]c(=O)c2C(=O)Nc2ccc(N3CCN(C)CC3)c(N)c2)cnc2c1NCC(C)O2` (stereo not drawn) [Example 294, N-(3-amino-4-(4-methylpiperazin-1-yl)phenyl)-4-((3,8-dimethyl-2,3-dihydro-1H-pyrido[2,3-b][1,4]oxazin-7-yl)amino)-2-oxo-1,2-dihydropyridine-3-carboxamide], for which the IC50 was at most 0.01 µM.

In the case of `CNc1cc(NC(=O)c2c(Nc3cnc4c(c3C)NCCO4)cc[nH]c2=O)ccc1N1CCN(C)CC1` [Example 295, 4-((8-methyl-2,3-dihydro-1H-pyrido[2,3-b][1,4]oxazin-7-yl)amino)-N-(3-(methylamino)-4-(4-methylpiperazin-1-yl)phenyl)-2-oxo-1,2-dihydropyridine-3-carboxamide], the half-maximal inhibitory concentration (IC50) lay within 0.01 to 0.1 µM. As to `Cc1c(Nc2cc[nH]c(=O)c2C(=O)Nc2ccc3nc(NC(=O)[C@@H]4C[C@@H]4F)sc3c2)cnc2c1NCCO2` [Example 296, N-(2-((1S,2S)-2-fluorocyclopropane-1-carboxamido)benzo[d]thiazol-6-yl)-4-((8-methyl-2,3-dihydro-1H-pyrido[2,3-b][1,4]oxazin-7-yl)amino)-2-oxo-1,2-dihydropyridine-3-carboxamide], the IC50 was in the range of 0.1 to 1 µM.

`Cc1c(Nc2cc[nH]c(=O)c2C(=O)Nc2ccc3sc(NC(=O)[C@@H]4C[C@@H]4F)nc3c2)cnc2c1NCCO2` [Example 297, N-(2-((1S,2S)-2-fluorocyclopropane-1-carboxamido)benzo[d]thiazol-5-yl)-4-((8-methyl-2,3-dihydro-1H-pyrido[2,3-b][1,4]oxazin-7-yl)amino)-2-oxo-1,2-dihydropyridine-3-carboxamide]: the 50% inhibitory concentration (IC50) lay within 0.1 to 1 µM. Consider `Cc1c(Nc2cc[nH]c(=O)c2C(=O)Nc2ccc(N3CCN(CC(=O)N(C)C)CC3)cc2)cnc2c1NCCO2` [Example 298, N-(4-(4-(2-(dimethylamino)-2-oxoethyl)piperazin-1-yl)phenyl)-4-((8-methyl-2,3-dihydro-1H-pyrido[2,3-b][1,4]oxazin-7-yl)amino)-2-oxo-1,2-dihydropyridine-3-carboxamide], for which the IC50 is at most 0.01 µM. As for `CN1CCN(c2ccc(NC(=O)c3c(Nc4cnc5c(c4C#N)NCCO5)cc[nH]c3=O)cc2)CC1` [Example 299, 4-((8-cyano-2,3-dihydro-1H-pyrido[2,3-b][1,4]oxazin-7-yl)amino)-N-(4-(4-methylpiperazin-1-yl)phenyl)-2-oxo-1,2-dihydropyridine-3-carboxamide], the IC50 is 0.01 to 0.1 µM. Turning to `Cc1c(Nc2cc[nH]c(=O)c2C(=O)Nc2ccc(N3CCC(C(C)(C)O)CC3)cc2)cnc2c1NCCO2` [Example 300, N-(4-(4-(2-hydroxypropan-2-yl)piperidin-1-yl)phenyl)-4-((8-methyl-2,3-dihydro-1H-pyrido[2,3-b][1,4]oxazin-7-yl)amino)-2-oxo-1,2-dihydropyridine-3-carboxamide], the IC50 was at most 0.01 µM. As for `Cc1c(Nc2cc[nH]c(=O)c2C(=O)Nc2ccc(N3CCC(C)(CO)CC3)cc2)cnc2c1NCCO2` [Example 301, N-(4-(4-(hydroxymethyl)-4-methylpiperidin-1-yl)phenyl)-4-((8-methyl-2,3-dihydro-1H-pyrido[2,3-b][1,4]oxazin-7-yl)amino)-2-oxo-1,2-dihydropyridine-3-carboxamide], the figure is 0.01 to 0.1 µM; as for `Cc1c(Nc2cc[nH]c(=O)c2C(=O)Nc2ccc(N3CCC(C(C)O)CC3)cc2)cnc2c1NCCO2` (stereo not drawn) [Example 302, N-(4-(4-(1-hydroxyethyl)piperidin-1-yl)phenyl)-4-((8-methyl-2,3-dihydro-1H-pyrido[2,3-b][1,4]oxazin-7-yl)amino)-2-oxo-1,2-dihydropyridine-3-carboxamide], at most 0.01 µM; as for `Cc1c(Nc2cc[nH]c(=O)c2C(=O)Nc2ccc(N3CCN(C(=O)c4ccn[nH]4)CC3)cc2)cnc2c1NCCO2` [Example 303, N-(4-(4-(1H-pyrazole-5-carbonyl)piperazin-1-yl)phenyl)-4-((8-methyl-2,3-dihydro-1H-pyrido[2,3-b][1,4]oxazin-7-yl)amino)-2-oxo-1,2-dihydropyridine-3-carboxamide], at most 0.01 µM.

For the molecule `Cc1c(Nc2cc[nH]c(=O)c2C(=O)Nc2ccc(N3CCN(C(=O)C4CC(C)(C)C4)CC3)cc2)cnc2c1NCCO2` [Example 304, N-(4-(4-(3,3-dimethylcyclobutane-1-carbonyl)piperazin-1-yl)phenyl)-4-((8-methyl-2,3-dihydro-1H-pyrido[2,3-b][1,4]oxazin-7-yl)amino)-2-oxo-1,2-dihydropyridine-3-carboxamide], the IC50 was at most 0.01 µM.

As for `Cc1c(Nc2cc[nH]c(=O)c2C(=O)Nc2ccc(N3CCN(C(=O)C4CC4C)CC3)cc2)cnc2c1NCCO2` (stereo not drawn) [Example 305, 4-((8-methyl-2,3-dihydro-1H-pyrido[2,3-b][1,4]oxazin-7-yl)amino)-N-(4-(4-(2-methylcyclopropane-1-carbonyl)piperazin-1-yl)phenyl)-2-oxo-1,2-dihydropyridine-3-carboxamide], the half-maximal inhibitory concentration (IC50) was at most 0.01 µM. In the case of `Cc1c(Nc2cc[nH]c(=O)c2C(=O)Nc2ccc(N3CCN(C(=O)C4(C)CCC4)CC3)cc2)cnc2c1NCCO2` [Example 306, 4-((8-methyl-2,3-dihydro-1H-pyrido[2,3-b][1,4]oxazin-7-yl)amino)-N-(4-(4-(1-methylcyclobutane-1-carbonyl)piperazin-1-yl)phenyl)-2-oxo-1,2-dihydropyridine-3-carboxamide], the IC50 is at most 0.01 µM. As for `Cc1c(Nc2cc[nH]c(=O)c2C(=O)Nc2ccc(N3CCN(C(=O)C4CC(C)C4)CC3)cc2)cnc2c1NCCO2` (stereo not drawn) [Example 307, 4-((8-methyl-2,3-dihydro-1H-pyrido[2,3-b][1,4]oxazin-7-yl)amino)-N-(4-(4-(3-methylcyclobutane-1-carbonyl)piperazin-1-yl)phenyl)-2-oxo-1,2-dihydropyridine-3-carboxamide], the figure is at most 0.01 µM; as for `Cc1c(Nc2cc[nH]c(=O)c2C(=O)Nc2ccc(N3CCN(Cc4ccnn4C)CC3)cc2)cnc2c1NCCO2` [Example 308, N-(4-(4-((1-methyl-1H-pyrazol-5-yl)methyl)piperazin-1-yl)phenyl)-4-((8-methyl-2,3-dihydro-1H-pyrido[2,3-b][1,4]oxazin-7-yl)amino)-2-oxo-1,2-dihydropyridine-3-carboxamide], at most 0.01 µM. As to `Cc1c(Nc2cc[nH]c(=O)c2C(=O)Nc2ccc(N3CCN(C(=O)C4CC4(C)C)CC3)cc2)cnc2c1NCCO2` (stereo not drawn) [Example 309, N-(4-(4-(2,2-dimethylcyclopropane-1-carbonyl)piperazin-1-yl)phenyl)-4-((8-methyl-2,3-dihydro-1H-pyrido[2,3-b][1,4]oxazin-7-yl)amino)-2-oxo-1,2-dihydropyridine-3-carboxamide], the IC50 is at most 0.01 µM.

For the molecule `COC(C)(C)CN1CCN(c2ccc(NC(=O)c3c(Nc4cnc5c(c4C)NCCO5)cc[nH]c3=O)cc2)CC1` [Example 310, N-(4-(4-(2-methoxy-2-methylpropyl)piperazin-1-yl)phenyl)-4-((8-methyl-2,3-dihydro-1H-pyrido[2,3-b][1,4]oxazin-7-yl)amino)-2-oxo-1,2-dihydropyridine-3-carboxamide], the IC50 was at most 0.01 µM. Regarding `Cc1c(Nc2cc[nH]c(=O)c2C(=O)Nc2ccc(N3CCN(C(=O)CC4CC4)CC3)cc2)cnc2c1NCCO2` [Example 312, N-(4-(4-(2-cyclopropylacetyl)piperazin-1-yl)phenyl)-4-((8-methyl-2,3-dihydro-1H-pyrido[2,3-b][1,4]oxazin-7-yl)amino)-2-oxo-1,2-dihydropyridine-3-carboxamide], the IC50 was at most 0.01 µM. As for `CCC(=O)N1CCN(c2ccc(NC(=O)c3c(Nc4cnc5c(c4C)NCC(C)O5)cc[nH]c3=O)cc2Cl)CC1` (stereo not drawn) [Example 313, N-(3-chloro-4-(4-propionylpiperazin-1-yl)phenyl)-4-((3,8-dimethyl-2,3-dihydro-1H-pyrido[2,3-b][1,4]oxazin-7-yl)amino)-2-oxo-1,2-dihydropyridine-3-carboxamide], the figure is 0.01 to 0.1 µM; as for `Cc1c(Nc2cc[nH]c(=O)c2C(=O)Nc2ccc(N3CCN(C(=O)C(C)C)CC3)cc2)cnc2c1NCCO2` [Example 315, N-(4-(4-Isobutyrylpiperazin-1-yl)phenyl)-4-((8-methyl-2,3-dihydro-1H-pyrido[2,3-b][1,4]oxazin-7-yl)amino)-2-oxo-1,2-dihydropyridine-3-carboxamide], at most 0.01 µM; as for `Cc1c(Nc2cc[nH]c(=O)c2C(=O)Nc2ccc(N3CCN(C(=O)c4ccnn4C)CC3)cc2)cnc2c1NCCO2` [Example 316, N-(4-(4-(1-methyl-1H-pyrazole-5-carbonyl)piperazin-1-yl)phenyl)-4-((8-methyl-2,3-dihydro-1H-pyrido[2,3-b][1,4]oxazin-7-yl)amino)-2-oxo-1,2-dihydropyridine-3-carboxamide], 0.01 to 0.1 µM.
